From patent publication US9586896B2, “Nitroxyl donors with improved therapeutic index” (Cardioxyl Pharmaceuticals, Inc., priority 2013, dated 2017) come the findings set out here.

The structures appear in SMILES notation.

The data set can be described thus: Exploratory studies on the cause of the side effects of CXL-1020. The settings on record: in vivo. The protocol:
Exploratory studies were continued to determine the cause of the undesirable side effects of CXL-1020 at the higher, but still clinically desirable, doses. […] Studies were conducted with alternative nitroxyl donors that were structurally unrelated to CXL-1020 but had similar half-lives for nitroxyl donation (half-lives of about 2 minutes). For these donors, nitroxyl was at its highest intravascular concentration at the catheter tip and immediately downstream in the vein into which the catheter had been inserted. In all instances, local vascular side effects at the catheter tip were observed.

Consider `CS(=O)(=O)c1ccccc1S(=O)O` [byproduct of CXL-1020], for which the “side effect studies with the byproduct” value is “negative”.
